Test results reported in patent US20070219275A1, “Use of Benzophenone Uv Filters for Preventing Tanning” (priority 2004, published 2007).

Test system: skin pigmentation on the back of Asian volunteers
Assay: Tanning prevention: skin color (L*a*b*, Minolta chromameter) on the back of volunteers irradiated with simulated solar light
Assay type: in vivo, human
Conditions: day cream with 5% compound
Procedure: Skin color was measured in the L*a*b* colour by means of a Minolta CM-508i®) Chromameter).
10 Volunteers of originating from S-E-Asia and with a skinlightness L* between 65.4 and 40.8 were recruited following COLIPA-Guidelines.
The influence of extensive sun exposure on skin pigmentation and the protective effects of day care cosmetics were directly measured on the back of volunteers:
40 and 20 minutes prior to irradiation volunteers treated on the back with 2 mg/cm^2 of cream formulation.
Then tey were irradiated with simulated solar light for 12 weeks, 3-times a week with a dose≦1 MED (Minimal erythema dose; MED adjusted monthly).
The skin of the volunteers was assessed prior to the test and monthly prior to cream application and irradiation.
The influence of extensive sun exposure on skin pigmentation and the protective effects of a day cream containing
was directly measured on the back of Asian volunteers.
The skin of the volunteers was assessed prior to the test and monthly prior to cream application and irradiation for skin color by a Minolta Colorimeter 508i.

[1] = After 4 weeks, irradiation 3x/week <1 MED
[2] = After 8 weeks, irradiation 3x/week <1 MED
[3] = After 12 weeks, irradiation 3x/week <1 MED
[4] = Start, 2 mg/cm^2, 10 Asian volunteers

CCCCCCOC(=O)c1ccccc1C(=O)c1ccc(N(CC)CC)cc1O [compound of formula (3)]
L* (skin color) [1]: 50.5 | a* (skin color) [1]: 23.1 | b* (skin color) [1]: 22.6 | L* (skin color) [2]: 48.8 | a* (skin color) [2]: 22.6 | b* (skin color) [2]: 23.3 | L* (skin color) [3]: 47.7 | a* (skin color) [3]: 21.5 | b* (skin color) [3]: 24.6 | L* (skin color) [4]: 53.3 | a* (skin color) [4]: 22.5 | b* (skin color) [4]: 22.5
